US6277364A, “Polyurethanes as topical skin protectants” (Bertek Pharmaceuticals, Inc., priority 1998, dated 2001)
≈ marks a conversion by molar mass, not a printed value.

Tests used:
[1] = physchem; settings: water
[2] = in vivo

Compound | solubility [1] | localization in skin [2]
O=c1[nH]cc(F)c(=O)[nH]1 [5-FU, 5-fluorouracil] | 10.2 mg/mL (≈ 78.4 mM) | 
poly[oxy(methyl-1,2-ethanediyl)], α-hydro-ω-hydroxy-, polymer with 1,1'-methylene-bis-[4-isocyanatocyclohexane] [PP-2] |  | localized in the stratum corneum
